Several values for one entry are separate records, joined by “and”; a condition that tells them apart may be missing. Equal values may be shown once. Entries after “also recorded” stand apart in the source; their conditions may differ. Read-outs that look alike come from different tables or passages of the source.
Tests used:
SARS-CoV-2 = test: microbe, parasite or virus in culture; format: cell-based
SARS-CoV-2 3CLPro = SARS-CoV-2 3CLPro (Severe acute respiratory syndrome coronavirus 2, UniProt P0DTD1); test: biochemical
recombinant SETD2 = target: T1, recombinant SETD2 (Homo sapiens, UniProt Q9BYW2); test: SETD2 Chemiluminescence assay (H3K36 tri-methylation); format: biochemical; conditions: for SETD2 signal, blank corrected, normalized to positive ctrl: internal control
T1 construct: purchased BPS Bioscience 52060
T1 sequence (Q9BYW2 1418-1714 limits assumed): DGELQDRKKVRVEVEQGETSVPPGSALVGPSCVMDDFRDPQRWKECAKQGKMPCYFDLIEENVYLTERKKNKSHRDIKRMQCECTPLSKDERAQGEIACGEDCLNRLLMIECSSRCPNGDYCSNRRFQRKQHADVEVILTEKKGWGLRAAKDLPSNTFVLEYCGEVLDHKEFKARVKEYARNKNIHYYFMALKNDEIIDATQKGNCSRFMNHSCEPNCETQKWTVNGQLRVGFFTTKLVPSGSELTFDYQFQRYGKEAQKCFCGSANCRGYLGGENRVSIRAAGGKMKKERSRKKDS

SETD2 = conditions: cited from earlier work
COVID-19 = test system: COVID-19; set-up: method as in PMID 33264556; conditions: trial discontinued in July 2020; cited from earlier work
human 5-HT1A receptor = target: T2, human 5-HT1A receptor (Homo sapiens, UniProt P08908); test: GPCR radioligand binding assay, [3H]-8-OH-DPAT displacement, HEK293 membranes
T2 construct: expressed in transfected cells
T2 sequence (P08908 1-422): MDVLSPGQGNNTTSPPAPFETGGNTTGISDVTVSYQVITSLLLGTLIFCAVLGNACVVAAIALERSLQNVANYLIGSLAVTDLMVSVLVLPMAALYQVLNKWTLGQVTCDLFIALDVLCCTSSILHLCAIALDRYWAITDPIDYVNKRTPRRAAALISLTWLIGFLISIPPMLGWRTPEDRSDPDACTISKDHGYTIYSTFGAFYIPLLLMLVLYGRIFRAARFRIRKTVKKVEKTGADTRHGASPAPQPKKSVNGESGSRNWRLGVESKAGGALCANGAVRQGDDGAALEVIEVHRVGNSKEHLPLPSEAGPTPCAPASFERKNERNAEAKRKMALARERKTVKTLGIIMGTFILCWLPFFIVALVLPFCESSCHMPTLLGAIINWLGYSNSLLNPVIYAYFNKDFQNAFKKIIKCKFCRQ

human 5-HT6 receptor = target: T3, human 5-HT6 receptor (Homo sapiens, UniProt P50406); test: GPCR radioligand binding assay, [3H]-LSD displacement, HEK293 membranes
T3 construct: expressed in transfected cells
T3 sequence (P50406 whole entry): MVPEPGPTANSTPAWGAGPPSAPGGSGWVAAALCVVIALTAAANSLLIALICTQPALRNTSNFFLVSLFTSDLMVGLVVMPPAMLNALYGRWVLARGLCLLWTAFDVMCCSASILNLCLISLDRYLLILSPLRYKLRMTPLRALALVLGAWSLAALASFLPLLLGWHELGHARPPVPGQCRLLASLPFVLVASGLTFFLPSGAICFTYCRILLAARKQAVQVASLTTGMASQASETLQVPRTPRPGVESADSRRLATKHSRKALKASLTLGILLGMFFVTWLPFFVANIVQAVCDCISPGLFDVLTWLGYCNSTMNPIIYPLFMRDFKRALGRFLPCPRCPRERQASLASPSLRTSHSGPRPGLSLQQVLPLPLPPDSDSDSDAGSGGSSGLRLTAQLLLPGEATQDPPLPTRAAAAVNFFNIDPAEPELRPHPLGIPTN

human 5-HT7b receptor = target: T4, human 5-HT7b receptor (Homo sapiens, UniProt P34969); test: GPCR radioligand binding assay, [3H]-5-CT displacement, HEK293 membranes
T4 construct: expressed in transfected cells
T4 sequence (P34969 1-432): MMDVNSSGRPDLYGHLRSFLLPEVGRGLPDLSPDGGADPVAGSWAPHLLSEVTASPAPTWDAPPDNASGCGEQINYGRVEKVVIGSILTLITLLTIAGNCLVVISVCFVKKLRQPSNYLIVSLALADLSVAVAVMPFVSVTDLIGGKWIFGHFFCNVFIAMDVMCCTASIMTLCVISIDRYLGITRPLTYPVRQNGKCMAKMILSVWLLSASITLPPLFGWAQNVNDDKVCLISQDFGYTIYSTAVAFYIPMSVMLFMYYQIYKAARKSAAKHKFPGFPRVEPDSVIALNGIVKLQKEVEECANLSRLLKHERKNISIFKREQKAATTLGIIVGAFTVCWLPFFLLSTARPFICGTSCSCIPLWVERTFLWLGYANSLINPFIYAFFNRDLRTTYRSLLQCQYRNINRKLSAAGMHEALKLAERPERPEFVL

human thrombin = target: T5, human thrombin (Homo sapiens, UniProt P00734); test: Protease inhibitory assay, chromogenic substrate S-2238; format: biochemical; conditions: 1 = hit, 0 = no hit; screening at 200 µM
T5 construct: human thrombin; purchased Sigma-Aldrich

bovine factor Xa = target: T6, bovine factor Xa (Bos taurus, UniProt P00743); test: Protease inhibitory assay, chromogenic substrate S-2222; format: biochemical; conditions: 1 = hit, 0 = no hit; screening at 200 µM
T6 construct: bovine factor Xa, Chromogenix, 2 nkat/mL; purchased Chromogenix
T6 sequence (P00743 234-492 limits assumed): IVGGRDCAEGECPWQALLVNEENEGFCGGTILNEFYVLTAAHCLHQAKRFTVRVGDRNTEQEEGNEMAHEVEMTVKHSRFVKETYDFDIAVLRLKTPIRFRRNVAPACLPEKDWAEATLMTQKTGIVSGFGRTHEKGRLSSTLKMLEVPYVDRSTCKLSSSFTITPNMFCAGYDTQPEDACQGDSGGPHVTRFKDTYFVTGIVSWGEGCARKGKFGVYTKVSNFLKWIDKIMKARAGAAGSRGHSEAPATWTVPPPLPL
T6 sequence (P00743 41-180 partner limits assumed): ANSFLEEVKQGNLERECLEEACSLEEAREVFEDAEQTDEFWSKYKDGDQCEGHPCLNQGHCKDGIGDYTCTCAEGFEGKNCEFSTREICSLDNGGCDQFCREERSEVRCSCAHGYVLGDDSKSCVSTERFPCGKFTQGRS

[1] = target: T7, SARS-CoV-2 NSP3 macrodomain (Severe acute respiratory syndrome coronavirus 2, UniProt P0DTD1); test: NSP3 macrodomain HTRF assay, displacement of ADP-ribose-conjugated biotin peptide; format: binding
[2] = target: T7, SARS-CoV-2 NSP3 macrodomain; test: X-ray fragment screening (XChem, crystal soaking); format: binding
[3] = 1 = hit, 0 = no hit, tested at 10 µM, hit = 50% or stronger inhibition

## CS(=O)(=O)c1ccc(N2CCNCC2)cc1 [SX013]
SARS-CoV-2; 10 uM, Vero E6, replicates
  Inhibition (%): 0% (2×) and 3.199%
  viral copy numbers normalized to the control (untreated infected cells): 1.473 and 0.968 and 1.581
SARS-CoV-2; 100 uM, Vero E6, replicates
  Inhibition (%): 10.36% and 9.981% and 0%
  viral copy numbers normalized to the control (untreated infected cells): 0.8964 and 0.9002 and 2.418
SARS-CoV-2; 250 uM, Vero E6, replicates
  Inhibition (%): 47.65% and 50.9%
  viral copy numbers normalized to the control (untreated infected cells): 0.5487 and 0.5235 and 0.491
SARS-CoV-2; 500 uM, Vero E6, replicates
  Inhibition (%): 62.09% and 74.66%
  viral copy numbers normalized to the control (untreated infected cells): 0.2563 and 0.3791 and 0.2534
SARS-CoV-2; 750 uM, Vero E6, replicates
  Inhibition (%): 96.1% and 86.32%
  viral copy numbers normalized to the control (untreated infected cells): 0.06859 and 0.03899 and 0.1368
SARS-CoV-2; 1000 uM, Vero E6, replicates
  Inhibition (%): 99.81%
  viral copy numbers normalized to the control (untreated infected cells): 0.003839 and 0.001919 and 0
SARS-CoV-2; 1500 uM, Vero E6, replicates
  Inhibition (%): 99.97%
  viral copy numbers normalized to the control (untreated infected cells): 0 (2×) and 0.000289
SARS-CoV-2; Severe acute respiratory syndrome coronavirus 2, Vero C1008, 250 uM, Vero E6, replicates
  inhibition at 250 µM: 45.1%
SARS-CoV-2; Severe acute respiratory syndrome coronavirus 2, Vero C1008, 500 uM, Vero E6, replicates
  inhibition at 500 µM: 74.4%
SARS-CoV-2; Severe acute respiratory syndrome coronavirus 2, Vero C1008, 750 uM, Vero E6, replicates
  inhibition at 750 µM: 93.1%
SARS-CoV-2; Severe acute respiratory syndrome coronavirus 2, Vero C1008, 1000 uM, Vero E6, replicates
  inhibition at 1000 µM: 99.6%
SARS-CoV-2; Severe acute respiratory syndrome coronavirus 2, Vero C1008, 1500 uM, Vero E6, replicates
  inhibition at 1500 µM: 100%
SARS-CoV-2; Severe acute respiratory syndrome coronavirus 2, Vero C1008, 48 h, read-out: EC50, blocking SARS-CoV-2 replication, Vero E6 cells, 48 h post infection
  EC50: 304 µM
SARS-CoV-2; read-out: EC50, blocking SARS-CoV-2 replication, Vero E6 cells, 48 h post infection
  EC50: 304 µM
SARS-CoV-2 3CLPro
  IC50: 31 µM

## Nc1ncnc2c1ncn2[C@@H]1O[C@H](C[C@@H](N)CC[C@H](N)C(=O)O)[C@@H](O)[C@H]1O [Sinefungin, reference compound]
Recombinant SETD2; 200 µM Sinefungin
  inhibition of SETD2 activity (control, in words): complete inhibition
Recombinant SETD2; 200 µM
  SETD2 signal, blank corrected, normalized to positive ctrl: 0.074
Recombinant SETD2; 800 µM
  SETD2 signal, blank corrected, normalized to positive ctrl: 0.0136
SETD2
  activity as inhibitor of SETD2 (in words): moderately active

## lopinavir/ritonavir
COVID-19
  clinical trial outcome against COVID-19: ineffectiveness

## Nc1nnc2ccccn12 [SX005]
Human 5-HT1A receptor; 10 µM, read-out: 5-HT1A % Inhibition by plate position
  inhibition at 10 µM: 0%
Human 5-HT1A receptor; [3]
  experimental hit status, 5-HT1: 0
Human 5-HT1A receptor; 5-HT1A, average of exp_1 and exp_2, read-out: %inh 5-HT1A average
  inhibition at 10 µM: -14%
Human 5-HT1A receptor; 5-HT1A, average, values below 0 and above 100% were set as 0 and 100, read-out: %inh 5-HT1A corrected*
  inhibition at 10 µM: 0%
Human 5-HT1A receptor; 5-HT1A, replicate exp_1, read-out: %inh 5-HT1A exp_1
  inhibition at 10 µM: 4%
Human 5-HT1A receptor; 5-HT1A, replicate exp_2, read-out: %inh 5-HT1A exp_2
  inhibition at 10 µM: -32%
Human 5-HT6 receptor; 10 µM, read-out: 5-HT6 % Inhibition by plate position
  inhibition at 10 µM: 40%
Human 5-HT6 receptor; [3]
  experimental hit status, 5-HT6: 0
Human 5-HT6 receptor; 5-HT6, average of exp_1 and exp_2, read-out: %inh 5-HT6 average
  inhibition at 10 µM: 40%
Human 5-HT6 receptor; 5-HT6, average, values below 0 and above 100% were set as 0 and 100, read-out: %inh 5-HT6 corrected*
  inhibition at 10 µM: 40%
Human 5-HT6 receptor; 5-HT6, replicate exp_1, read-out: %inh 5-HT6 exp_1
  inhibition at 10 µM: 45%
Human 5-HT6 receptor; 5-HT6, replicate exp_2, read-out: %inh 5-HT6 exp_2
  inhibition at 10 µM: 35%
Human 5-HT7b receptor; 10 µM, read-out: 5-HT7 % Inhibition by plate position
  inhibition at 10 µM: 0%
Human 5-HT7b receptor; [3]
  experimental hit status, 5-HT7: 0
Human 5-HT7b receptor; 5-HT7, average of exp_1 and exp_2, read-out: %inh 5-HT7 average
  inhibition at 10 µM: -0.039%
Human 5-HT7b receptor; 5-HT7, average, values below 0 and above 100% were set as 0 and 100, read-out: %inh 5-HT7 corrected*
  inhibition at 10 µM: 0%
Human 5-HT7b receptor; 5-HT7, replicate exp_1, read-out: %inh 5-HT7 exp_1
  inhibition at 10 µM: -4.51%
Human 5-HT7b receptor; 5-HT7, replicate exp_2, read-out: %inh 5-HT7 exp_2
  inhibition at 10 µM: 4.43%
Human thrombin
  experimental hit status, Thrombin: 0
Bovine factor Xa
  experimental hit status, Factor Xa: 0
Recombinant SETD2; 1 = hit, 0 = no hit
  experimental hit status, SETD2: 0
[1]; 39.0625 µM, replicates
  % SARS-CoV-2 macrodomain inhibition: 11.4%
  inhibition at 39.0625 µM: 10.2%
[1]; 78.125 µM, replicates
  % SARS-CoV-2 macrodomain inhibition: 23.5%
  inhibition at 78.125 µM: 22.6%
[1]; 156.25 µM, replicates
  % SARS-CoV-2 macrodomain inhibition: 31.2%
  inhibition at 156.25 µM: 27.9%
[1]; 312.5 µM, replicates
  % SARS-CoV-2 macrodomain inhibition: 41.8%
  inhibition at 312.5 µM: 41%
[1]; 625 µM, replicates
  % SARS-CoV-2 macrodomain inhibition: 55.4%
  inhibition at 625 µM: 54.1%
[1]; 1250 µM, replicates
  % SARS-CoV-2 macrodomain inhibition: 64.7%
  inhibition at 1250 µM: 65%
[1]; 2500 µM, replicates
  % SARS-CoV-2 macrodomain inhibition: 70.5%
  inhibition at 2500 µM: 72%
[1]; 5000 µM, replicates
  % SARS-CoV-2 macrodomain inhibition: 74.9%
  inhibition at 5000 µM: 74.7%
[1]; IC50, SARS-CoV-2 macrodomain inhibition
  IC50: 465 µM
SARS-CoV-2; Severe acute respiratory syndrome coronavirus 2, Vero C1008, read-out: Inhibition (%) of viral copy numbers, 1000 uM, replicates
  inhibition at 1000 µM: 83.7%
SARS-CoV-2; infected Vero E6 cells
  antiviral activity in the cellular assay (in words): high micromolar range; also recorded: Significant antiviral activities
[2]
  X-ray screen result, binding site: identified in the active site

From article PMC8159961, “Exploring protein hotspots by optimized fragment pharmacophores” (Nature Communications, 2021)
